Source: the supplement of paper PMC10307832

Columns and labels:
Assay in all cases: relative viability (nuclei count vs DMSO), 5 days (fraction); higher = more cells survive
Shikonin + Decitabine = compound: CC(C)=CC[C@@H](O)C1=CC(=O)c2c(O)ccc(O)c2C1=O [Shikonin] + Nc1ncn([C@H]2C[C@H](O)[C@@H](CO)O2)c(=O)n1 [Decitabine] (partner 2 µM)
Summary of the method: (§1)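 Lung cancer cell lines, seeded in 1536-well plates, were treated the following day by pin tool with a single drug or with five library-drug doses (not always all listed) in √10 steps on top of a fixed anchor-drug dose. Cells were fixed and nuclei stained in one step after 5 days, and nuclei were counted. Relative viability is the nuclei count for treated wells divided by that for vehicle wells, reported as medians of duplicate plates.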

Shikonin + Luminespib = compound: CC(C)=CC[C@@H](O)C1=CC(=O)c2c(O)ccc(O)c2C1=O [Shikonin] + CCNC(=O)c1noc(-c2cc(C(C)C)c(O)cc2O)c1-c1ccc(CN2CCOCC2)cc1 [Luminespib] (partner 0.01 µM)
Summary of the method: as §1

Shikonin + Phenformin = compound: CC(C)=CC[C@@H](O)C1=CC(=O)c2c(O)ccc(O)c2C1=O [Shikonin] + N=C(N)NC(=N)NCCc1ccccc1 [Phenformin] (partner 250 µM)
Summary of the method: as §1

[1] = compound: CC(C)N(CCCNC(=O)Nc1ccc(C(C)(C)C)cc1)C[C@H]1O[C@@H](n2ccc3c(N)ncnc32)[C@H](O)[C@@H]1O + C[C@]1(O)C[C@@H](c2nc(-c3ccc4ccc(-c5ccccc5)nc4c3)c3c(N)nccn32)C1 [Linsitinib] (partner 1 µM)
Summary of the method: as §1

| Cell Line | relative viability (Shikonin + Decitabine; first compound 0.01 µM) | relative viability (Shikonin + Decitabine; first compound 0.3162 µM) | relative viability (Shikonin + Decitabine; first compound 1 µM) | relative viability (Shikonin + Luminespib; first compound 0.01 µM) | relative viability (Shikonin + Luminespib; first compound 0.1 µM) | relative viability (Shikonin + Luminespib; first compound 0.3162 µM) | relative viability (Shikonin + Luminespib; first compound 1 µM) | relative viability (Shikonin + Phenformin; first compound 0.01 µM) | relative viability (Shikonin + Phenformin; first compound 0.1 µM) | relative viability (Shikonin + Phenformin; first compound 0.3162 µM) | relative viability (Shikonin + Phenformin; first compound 1 µM) | relative viability (Shikonin + Decitabine; first compound 0.1 µM) | relative viability ([1]; first compound 0.08 µM) | relative viability ([1]; first compound 0.253 µM) | relative viability ([1]; first compound 0.8 µM) | relative viability ([1]; first compound 2.53 µM) | relative viability ([1]; first compound 8 µM) |
| --- | --- | --- | --- | --- | --- | --- | --- | --- | --- | --- | --- | --- | --- | --- | --- | --- | --- |
| NCI-H1648 | 0.481 | 0.526 | 0.532 | – | – | – | – | – | – | – | – | – | – | – | – | – | – |
| SK-MES-1 | 0.323 | 0.371 | 0.426 | 0.969 | 0.677 | 0.833 | 0.698 | 0.747 | 0.677 | 0.72 | 0.638 | 0.417 | 1.06 | 1.17 | 1.11 | 1.09 | 1.06 |
| NCI-H520 | 0.47 | 0.454 | 0.401 | 0.253 | 0.216 | 0.21 | 0.207 | 0.504 | 0.809 | 0.567 | 0.6 | 0.598 | 0.943 | 0.87 | 0.882 | 1 | 0.894 |
| HCC-366 | 0.34 | 0.37 | 0.367 | – | – | – | – | 0.62 | 0.644 | 0.663 | 0.597 | 0.381 | 0.597 | 0.581 | 0.563 | 0.547 | 0.513 |
| 201T | 0.847 | 0.879 | 0.867 | 0.971 | 1.13 | 1.03 | 1.07 | 0.464 | 0.492 | 0.428 | 0.498 | 0.919 | 1.01 | 1.06 | 0.981 | 1.01 | 1.08 |
| HCC-827 | 0.326 | 0.33 | 0.329 | 0.518 | 0.887 | 0.638 | 0.64 | 0.438 | 0.404 | 0.42 | 0.373 | 0.29 | 0.936 | 0.904 | – | 0.892 | 0.89 |
| NCI-H661 | 0.51 | 0.572 | 0.529 | 0.951 | 1.06 | 0.932 | 0.858 | 0.251 | 0.292 | 0.275 | 0.291 | 0.552 | 0.473 | 0.553 | 0.585 | 0.567 | 0.57 |
| NCI-H2085 | 0.528 | 0.57 | 0.532 | 0.443 | 0.471 | 0.336 | 0.379 | 0.738 | 0.847 | 0.785 | 0.637 | 0.515 | 0.912 | 0.949 | 0.805 | 0.958 | 0.943 |
| NCI-H647 | 0.364 | 0.346 | 0.328 | 0.169 | 0.142 | 0.147 | 0.159 | 0.572 | 0.677 | 0.477 | 0.538 | 0.504 | 1.12 | – | 1.17 | 1.13 | 1.03 |
| SW 1573 | 0.446 | 0.261 | 0.135 | 0.494 | 0.201 | 0.232 | 0.0929 | 0.389 | 0.388 | 0.325 | 0.122 | 0.686 | 0.603 | 0.872 | 0.848 | 0.976 | 0.825 |
| A-427 | 0.575 | 0.579 | 0.61 | 0.743 | 1.21 | 0.814 | 0.88 | 0.327 | 0.418 | 0.316 | 0.398 | 0.578 | 1.18 | 1.12 | 1.1 | 1.12 | 1.14 |
| NCI-H460 | 0.446 | 0.504 | 0.516 | 0.0384 | 0.034 | 0.0299 | 0.0321 | 0.515 | 0.64 | 0.51 | 0.474 | 0.685 | 0.722 | 0.775 | 0.627 | 0.66 | 0.678 |
| NCI-H1703 | – | – | – | – | – | – | – | – | – | – | – | – | 0.67 | 0.515 | – | 0.721 | 0.612 |
| NCI-H1792 | 0.567 | 0.644 | 0.681 | 0.554 | 0.361 | 0.371 | 0.544 | 0.257 | 0.185 | 0.241 | 0.393 | 0.553 | 0.534 | 0.503 | 0.393 | 0.52 | 0.535 |
| Calu-6 | – | – | – | – | – | – | – | – | – | – | – | – | 1 | 0.933 | 0.871 | 0.988 | 0.858 |
| SK-LU-1 | 0.631 | 0.59 | 0.635 | 0.212 | 0.215 | 0.198 | 0.187 | 0.522 | 0.648 | 0.596 | 0.524 | 0.688 | 0.94 | 1.33 | 1.17 | 1.41 | 0.953 |
| EMC-BAC-2 | 0.964 | 1.13 | 0.956 | 1.25 | 1.44 | 1.3 | 1.24 | 0.516 | 0.607 | 0.569 | 0.517 | 1.07 | 0.764 | 0.835 | 0.794 | 0.806 | 0.804 |
| LK-2 | 0.297 | 0.289 | 0.352 | 0.195 | 0.185 | 0.211 | 0.17 | 0.434 | 0.496 | 0.442 | 0.466 | 0.272 | 0.678 | 0.405 | 0.496 | 0.554 | 0.509 |
| NCI-H2228 | – | – | – | 0.153 | 0.177 | 0.146 | 0.163 | 0.31 | 0.287 | 0.283 | 0.289 | – | 0.817 | – | 0.665 | 0.625 | 0.554 |
| NCI-H322M | 0.736 | 0.714 | 0.664 | 0.942 | 0.855 | 0.82 | 0.847 | 0.871 | 0.856 | 0.754 | 0.836 | 0.723 | 0.863 | 0.81 | 0.877 | 0.861 | 0.894 |
| NCI-H1975 | 0.377 | 0.36 | 0.381 | 0.178 | 0.27 | 0.248 | 0.167 | 0.417 | 0.431 | 0.413 | 0.408 | 0.392 | 0.842 | 0.902 | 0.744 | 0.836 | 0.878 |
